Data: article PMC11383830, “TTK inhibitor OSU13 promotes immunotherapy responses by activating tumor STING” (JCI Insight, 2024)

Molecular target: T1, LRRK2 (Homo sapiens, UniProt Q5S007)
T1 construct: LRRK2-NanoLuc fusion
Assay: NanoBRET in-cell target engagement, competitive displacement of K-9 tracer in transfected HEK293 cells
Format: cell-based

T1 sequence (Q5S007 whole entry, the tested form may be a part): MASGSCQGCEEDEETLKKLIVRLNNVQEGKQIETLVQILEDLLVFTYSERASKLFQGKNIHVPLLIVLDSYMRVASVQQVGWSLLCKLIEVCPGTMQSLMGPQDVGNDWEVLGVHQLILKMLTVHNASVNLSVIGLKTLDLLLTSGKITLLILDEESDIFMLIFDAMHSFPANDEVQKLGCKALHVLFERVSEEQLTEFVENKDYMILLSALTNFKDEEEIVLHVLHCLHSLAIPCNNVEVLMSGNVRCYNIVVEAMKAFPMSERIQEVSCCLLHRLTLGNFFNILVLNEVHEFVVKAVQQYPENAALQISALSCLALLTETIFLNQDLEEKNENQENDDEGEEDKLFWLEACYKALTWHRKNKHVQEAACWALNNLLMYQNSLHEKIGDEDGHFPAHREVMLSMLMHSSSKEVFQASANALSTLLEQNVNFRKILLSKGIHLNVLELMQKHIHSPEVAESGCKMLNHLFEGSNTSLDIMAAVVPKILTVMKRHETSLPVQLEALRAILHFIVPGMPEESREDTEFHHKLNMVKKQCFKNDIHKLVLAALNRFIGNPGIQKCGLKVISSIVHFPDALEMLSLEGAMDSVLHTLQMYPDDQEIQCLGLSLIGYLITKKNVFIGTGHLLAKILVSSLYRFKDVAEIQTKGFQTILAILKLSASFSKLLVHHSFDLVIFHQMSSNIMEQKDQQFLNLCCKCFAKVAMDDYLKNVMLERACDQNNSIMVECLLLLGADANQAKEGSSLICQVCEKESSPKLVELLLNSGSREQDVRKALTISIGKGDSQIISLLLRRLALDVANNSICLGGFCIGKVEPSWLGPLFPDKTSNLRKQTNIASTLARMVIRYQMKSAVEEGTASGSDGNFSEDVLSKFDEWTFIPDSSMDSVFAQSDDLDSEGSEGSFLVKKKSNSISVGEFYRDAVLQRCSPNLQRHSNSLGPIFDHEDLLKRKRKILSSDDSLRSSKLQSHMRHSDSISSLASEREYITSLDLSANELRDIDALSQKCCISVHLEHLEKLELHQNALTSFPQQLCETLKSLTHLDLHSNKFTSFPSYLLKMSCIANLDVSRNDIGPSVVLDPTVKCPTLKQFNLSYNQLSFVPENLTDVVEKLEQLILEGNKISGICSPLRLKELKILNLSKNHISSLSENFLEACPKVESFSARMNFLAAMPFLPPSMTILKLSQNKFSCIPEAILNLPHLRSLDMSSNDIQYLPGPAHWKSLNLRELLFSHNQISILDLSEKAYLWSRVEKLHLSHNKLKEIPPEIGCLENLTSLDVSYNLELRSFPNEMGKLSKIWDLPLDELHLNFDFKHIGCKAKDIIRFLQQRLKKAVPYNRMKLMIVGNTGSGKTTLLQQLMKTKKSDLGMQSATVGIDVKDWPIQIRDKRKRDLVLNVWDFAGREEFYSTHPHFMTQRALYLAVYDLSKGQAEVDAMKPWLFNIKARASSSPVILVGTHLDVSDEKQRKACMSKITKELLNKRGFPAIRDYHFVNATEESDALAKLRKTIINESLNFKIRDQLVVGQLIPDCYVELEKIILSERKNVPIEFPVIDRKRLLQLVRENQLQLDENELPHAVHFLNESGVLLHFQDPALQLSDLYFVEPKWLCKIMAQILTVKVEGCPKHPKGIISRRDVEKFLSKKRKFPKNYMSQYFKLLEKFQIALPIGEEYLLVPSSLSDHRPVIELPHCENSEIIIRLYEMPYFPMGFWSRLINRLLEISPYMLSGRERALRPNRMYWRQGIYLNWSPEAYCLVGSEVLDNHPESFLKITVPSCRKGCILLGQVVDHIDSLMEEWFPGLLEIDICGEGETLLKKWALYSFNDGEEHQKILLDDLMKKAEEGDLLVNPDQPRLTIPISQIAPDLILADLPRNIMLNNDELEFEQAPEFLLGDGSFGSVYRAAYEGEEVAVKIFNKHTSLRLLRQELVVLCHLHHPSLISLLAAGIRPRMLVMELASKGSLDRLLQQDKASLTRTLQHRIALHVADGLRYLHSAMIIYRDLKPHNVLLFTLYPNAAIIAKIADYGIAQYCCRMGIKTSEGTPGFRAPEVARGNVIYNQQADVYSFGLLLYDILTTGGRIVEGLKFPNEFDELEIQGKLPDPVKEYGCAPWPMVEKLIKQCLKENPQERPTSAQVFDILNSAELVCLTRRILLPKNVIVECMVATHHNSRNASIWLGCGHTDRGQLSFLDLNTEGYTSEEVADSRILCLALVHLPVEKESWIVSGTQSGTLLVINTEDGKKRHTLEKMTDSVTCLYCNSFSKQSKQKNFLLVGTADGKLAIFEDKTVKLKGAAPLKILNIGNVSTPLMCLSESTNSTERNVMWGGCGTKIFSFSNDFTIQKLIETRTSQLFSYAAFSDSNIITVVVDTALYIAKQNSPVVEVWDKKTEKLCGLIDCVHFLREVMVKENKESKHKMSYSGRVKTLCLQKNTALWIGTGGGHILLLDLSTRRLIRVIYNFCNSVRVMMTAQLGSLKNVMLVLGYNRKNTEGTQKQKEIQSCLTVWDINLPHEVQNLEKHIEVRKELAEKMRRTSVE

Substance OSU13 has an EC50 of 216 nM.
